Common to all, as to test: growth of human tumour cells (NCI), 48 h
The test system of test [1] is OVCAR-5 ovarian.
In test [2] the test system is SNB-19 CNS.
In test [3] the test system is MOLT-4 leukemia.
Test [4] has as its system U251 CNS.
Test [5] concerns NCI-H522 lung.
The test system of test [6] is HOP-62 NSCLC.
For test [7], the system named is OVCAR-4 ovarian.
Test [8] deals with MDA-MB-231 breast.
Test [9] deals with HS 578T breast.
For test [10], the system named is SK-OV-3 ovarian.

Each structure is given as a SMILES string.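 Dose response: 5 concentrations. Exposure: 48 h. Format: 96-well plates. Endpoint: linear interpolation; highest concentration if not reached. GI50 marks 50% less growth. At the TGI there is no net growth.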

As to `Clc1ccc(/C=C/c2cc(N3CCOCC3)c3cc(Cl)c(Cl)cc3n2)cc1`, the GI50 in test [1] was over 100 µM; in test [2] it was over 100 µM; in test [3], 0.428 µM; in test [4], over 100 µM; in test [5] it was 1.86 µM; in test [6], over 100 µM. The GI50 in [7] is over 100 µM; in test [8], 11.1 µM; in test [9], over 100 µM; in [10], over 100 µM. Moreover, the TGI in test [1], in test [2], in [4], in [5], in test [6] and in test [7] was over 100 µM in each case. The TGI in [8], in test [9] and in test [10] was over 100 µM in each case.

Consider `COc1cc(-n2cc(-c3ccc(F)cc3)nc2SCc2ccccc2)cc(OC)c1OC`, for which the GI50 was over 100 µM in test [1]; over 100 µM in [2]; 89.2 µM in test [3]; over 100 µM in test [4]; 89.8 µM in test [5]; over 100 µM in test [6]. Moreover, the GI50 in test [7], in test [8], in test [9] and in [10] was over 100 µM each time. Further, the TGI in [1], in test [2], in test [3], in test [4], in test [5] and in [6] was over 100 µM throughout. The TGI in test [7], in [8], in test [9] and in [10] was over 100 µM each time.

Turning to `Cc1ccc2c(c1)c1nc3cc(C)c(C)cc3nc1n2CCN(C)C`, the GI50 in test [1] was 2.4 µM; in test [2] it was 2.5 µM; in [3], 1.73 µM; in [4] it was 2.3 µM; in test [5], 1.54 µM; in [6], 1.78 µM. Further, the GI50 in [7] is 3.43 µM; in [8], 2.11 µM; in [9] it was 2.74 µM; in test [10] it was 2.61 µM. Also, the TGI in test [1] is 7.65 µM; in [2] it was 9.88 µM; in test [3], 16.3 µM; in test [4], 8.85 µM; in test [5], 5.58 µM; in test [6], 7.26 µM. The TGI in test [7] was 19.6 µM; in [8], 8.5 µM; in test [9], 8.04 µM; in test [10] it was 8.52 µM.

For the molecule `N/C(=C\C(=O)n1nc(-c2ccccc2)cc1N)c1ccccc1`, the GI50 in [1] is 19.2 µM; in [2], 14.9 µM; in test [3], 3.72 µM; in test [4], 4.04 µM; in [5], 5.24 µM; in [6], 8.3 µM. In addition, the GI50 in test [7] was 12.5 µM; in test [8], 11.3 µM; in [9], 2.41 µM; in test [10] it was 5.31 µM. The TGI in [1] stood at 61.6 µM; in test [2] it was 81.2 µM; in [3], 17.8 µM; in test [4], 19.2 µM; in [5], 27.9 µM; in [6], 32.4 µM. Besides, the TGI in [7] turned out to be 47.1 µM; in [8] it was 65.2 µM; in test [9], 13 µM; in test [10], 39 µM.

Turning to `COc1cc2c3c(n(CCCN(CCN)CCCn4c5c(c6cc(OC)c(OC)cc6c4=O)C(=O)c4cc6c(cc4-5)OCO6)c(=O)c2cc1OC)-c1cc2c(cc1C3=O)OCO2`, the GI50 is 3.78 µM in test [1]; 0.741 µM in test [2]; 0.0846 µM in [3]; 0.354 µM in test [4]; 0.343 µM in [5]; 0.33 µM in test [6]. The GI50 is 13.3 µM in test [7], 3.3 µM in test [8], 12.6 µM in test [9] and 1.41 µM in test [10]. The TGI is 18.9 µM in [1]; over 100 µM in [2]; 5.99 µM in test [4]; 3.88 µM in [5]; 1.64 µM in [6]; over 83.8 µM in test [7]. The TGI was 17.3 µM in test [8], over 100 µM in [9] and over 91.6 µM in test [10].

For the molecule `COc1cc2c(cc1O)-c1c(cnn1-c1ccc([N+](=O)[O-])cc1)CCC2`, the TGI in test [1] is 61.2 µM; in [2] it was over 100 µM; in test [3] it was 6.2 µM; in test [4], 24.9 µM; in test [5] it was 40.9 µM; in test [6], over 100 µM. Further, the TGI in [7] is over 100 µM; in test [8], 33.2 µM; in test [9], 81.8 µM; in test [10], over 100 µM.
